Here are results for two sequences from US20250255961A1, “METHODS TO STIMULATE IMMUNE RESPONSES TO MUTANT RAS USING NUCLEATED CELLS” (STEMCELL TECHNOLOGIES CANADA INC., priority 2020, published 2025).

The test system of assay [1] is K-Ras G12V responder T cells. Briefly: IFN-γ ELISPOT: peptide-loaded HLA-A*11+ human PBMCs co-cultured with K-Ras G12V responder T cells. Particulars: Example 5, FIG. 5; HLA-A*11+ human PBMCs SQZ-loaded with 100 μM SLP. In kind it is cell-based. The procedure:
(§1) Human PBMCs from HLA-A*11^+ donor (donor 296) were prepared at a density of 10×10^6/mL, SQZ processed at room temperature through a constriction of 4.5 μm width, 10 μm length and 70 μm depth at 60 psi with 100 μM of the respective K-Ras synthetic long peptide (G12V^1-16, G12V^2-19) or with vehicle control (DMSO) in RPMI medium. Following SQZ-processing, the SQZ-loaded PMBCs were centrifuged, and the supernatant was discarded. The cells were subsequently washed once in R10 medium (RPMI+10% FCS+1% Pen/Strep), then washed twice in CTL medium (supplemented with 1% glutamine), before resuspension in fresh CTL medium (supplemented with 1% glutamine).
2×10^5 SQZ-loaded PBMCs were then placed in co-culture with 5×10^4 K-Ras G12V responder T cells (generated in transgenic mice) in an IFN-γ ELISPOT plate. As a positive control, 10 μM K-Ras G12V^7-16 peptide containing the minimal epitope was added directly to untreated PBMCs and responder cells in the ELISPOT plate (peptide spike). The plate was incubated overnight at 37° C. and then developed/quantified according to manufacturer's instructions.
as §1, with “donor” for “donor (donor 296)”, “constriction with” for “constriction of”, “peptide (K-Ras G12V^3-17, K-Ras G12V^3-42)” for “peptide (G12V^1-16, G12V^2-19)”, “medium. An irrelevant synthetic long peptide (HPV-E7.6) was used as a negative control.” for “medium.”
as §1, with “donor” for “donor (donor 296)”, “10× 10^6/mL,” for “10×10^6/mL,”, “(wild type K-Ras^1-16, G12V^1-16, wild type K-Ras^2-22, or G12V^2-22)” for “(G12V^1-16, G12V^2-19)”
as §1, with “donor” for “donor (donor 296)”, “of a single” for “of the respective”, “peptide (G12V^1-16” for “peptide (G12V^1-16, G12V^2-19)”, “or G12V^2-19), or a combination of two K-Ras synthetic long peptides which are each at 100 μM (G12V^1-16 plus G12D^1-16 or G12V^2-19 plus G12D^1-16) or” for “or with”, “glutamine). […]” for “glutamine).”

Assay [2] deals with K-Ras G12V responder T cells. Described as above. In kind it is cell-based. The note with it: Example 5, FIG. 5, HLA-A*11+ human PBMCs SQZ-loaded with 100 μM SLP.

Regarding “EYKLVVVGAVGVGKSALTIQLIQNHFVDEYDPTIEDSYRK [G12V^3-42, K-Ras G12V synthetic long peptide, residues 3-42]”, the “IFN-γ expressing K-Ras-G12V responder T cells upon co-culture” value in assay [1] is on record as “significant increases”; in assay [2] (listed as K-Ras-G12V^3-42), “increased amount”.
As to “EYKLVVVGAVGVGKS [G12V^3-17, K-Ras G12V synthetic long peptide, residues 3-17]”, the “IFN-γ expressing K-Ras-G12V responder T cells upon co-culture” value is “significant increases” in assay [1] and “increased amount” in assay [2] (listed as K-Ras-G12V^3-17).
